According to US12180187B2, “1-phenyl-5-azinylpyrazolyl-3-oxyalkyl acids and their use for controlling unwanted plant growth” (BAYER AKTIENGESELLSCHAFT, priority 2019, dated 2024):

Columns and labels:
[1] = test system: MATIN; test: Pre-emergence action against MATIN, 1280 g/ha; format: in vivo, Tripleurospermum inodorum (Matricaria inodora); conditions: scored visually after about 3 weeks vs untreated controls (100% = plants have died)
How it was run: (§1)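 Pre-emergence pot test: seeds in sandy loam, soil-covered, sprayed on soil surface (WP/EC, 0.5% additive, 600 L/ha water); greenhouse ~3 wk; visual % effect vs untreated, 0–100%.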

[2] = test system: POAAN; test: Post-emergence action against POAAN, 1.28 kg/ha; format: in vivo, Poa annua; conditions: dosage 1280 g/ha, visual rating about 3 weeks after treatment vs untreated controls
How it was run: (§2)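 Activity scored visually roughly 3 weeks after treatment against untreated plants (0% = as control, 100% = dead). Plants grown in sandy loam in greenhouse, treated at one-leaf stage, 2–3 weeks post-sowing, with WP/EC spray containing 0.5% additive at 600 l/ha.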

[3] = test system: ALOMY; test: Post-emergence action against ALOMY, 1.28 kg/ha; format: in vivo, Alopecurus myosuroides; conditions: dosage 1280 g/ha, visual rating about 3 weeks after treatment vs untreated controls
How it was run: as §2

[4] = test system: VERPE; test: Post-emergence action against VERPE, 1.28 kg/ha; format: in vivo, Veronica persica; conditions: dosage 1280 g/ha, visual rating about 3 weeks after treatment vs untreated controls (100% = plants died)
How it was run: as §2

[5] = test system: SETVI; test: Pre-emergence action against SETVI, 1280 g/ha; format: in vivo, Setaria viridis; conditions: visual scoring after about 3 weeks vs untreated controls, 100% = plants have died, 0% = like control plants
How it was run: as §1

[6] = test system: AMARE; test: Pre-emergence action against AMARE, 1280 g/ha; format: in vivo, Amaranthus retroflexus; conditions: scored visually after about 3 weeks vs untreated controls (100% = plants have died)
How it was run: as §1

[7] = test system: ECHCG; test: Pre-emergence action against ECHCG, 1280 g/ha; format: in vivo, Echinochloa crus-galli; conditions: visual scoring after about 3 weeks vs untreated controls, 100% = plants have died, 0% = like control plants
How it was run: as §1

[8] = test system: KCHSC; test: Post-emergence action against KCHSC, 1.28 kg/ha; format: in vivo, Bassia scoparia; conditions: dosage 1280 g/ha, visual rating about 3 weeks after treatment vs untreated controls (100% = plants died)
Experimental: (§3) • a) Seeds of mono- and dicotyledonous weed plants are placed in plastic pots in sandy loam soil (twin sowing with one species each of mono- or dicotyledonous weed plants per pot), covered with soil and cultivated in a greenhouse under controlled growth conditions. 2 to 3 weeks after sowing, the test plants are treated at the one-leaf stage. The compounds of the invention, formulated in the form of wettable powders (WP) or as emulsion concentrates (EC), are applied to the green parts of the plants as aqueous suspension or emulsion with addition of 0.5% additive at a water application rate equivalent to 600 litres per hectare. After the test plants have been kept in the greenhouse under optimum growth conditions for about 3 weeks, the activity of the preparations is rated visually in comparison to untreated controls. For example, 100% activity=the plants have died, 0% activity=like control plants. As shown by the results, compounds of the general formula (I) of the invention, in post-emergence treatment, have very good herbicidal efficacy (90% to 100% herbicidal action) against harmful plants such as Abutilon theophrasti, Digitaria sanguinalis, Echinochloa crus-galli, Matricaria inodora, Poa annua, at an application rate of 1.28 kg of active substance per hectare.

[9] = test system: STEME; test: Pre-emergence action against STEME, 1280 g/ha; format: in vivo, Stellaria media; conditions: scored visually after about 3 weeks vs untreated controls (100% = plants have died)
How it was run: as §1

[10] = test system: POAAN; test: Pre-emergence action against POAAN, 1280 g/ha; format: in vivo, Poa annua; conditions: visual scoring after about 3 weeks vs untreated controls, 100% = plants have died, 0% = like control plants
How it was run: as §1

[11] = test system: ECHCG; test: Post-emergence action against ECHCG, 1.28 kg/ha; format: in vivo, Echinochloa crus-galli; conditions: dosage 1280 g/ha, visual rating about 3 weeks after treatment vs untreated controls
How it was run: as §2

[12] = test system: ALOMY; test: Pre-emergence action against ALOMY, 1280 g/ha; format: in vivo, Alopecurus myosuroides; conditions: visual scoring after about 3 weeks vs untreated controls, 100% = plants have died, 0% = like control plants
How it was run: as §1

[13] = test system: VERPE; test: Pre-emergence action against VERPE, 1280 g/ha; format: in vivo, Veronica persica; conditions: scored visually after about 3 weeks vs untreated controls (100% = plants have died)
How it was run: as §1

[14] = test system: ABUTH; test: Post-emergence action against ABUTH, 1.28 kg/ha; format: in vivo, Abutilon theophrasti; conditions: dosage 1280 g/ha, visual rating about 3 weeks after treatment vs untreated controls (100% = plants died)
How it was run: as §2

[15] = test system: DIGSA; test: Pre-emergence action against DIGSA, 1280 g/ha; format: in vivo, Digitaria sanguinalis; conditions: visual scoring after about 3 weeks vs untreated controls, 100% = plants have died, 0% = like control plants
How it was run: as §1

[16] = test system: SETVI; test: Post-emergence action against SETVI, 1.28 kg/ha; format: in vivo, Setaria viridis; conditions: dosage 1280 g/ha, visual rating about 3 weeks after treatment vs untreated controls
How it was run: as §2

[17] = test system: DIGSA; test: Post-emergence action against DIGSA, 1.28 kg/ha; format: in vivo, Digitaria sanguinalis; conditions: dosage 1280 g/ha, visual rating about 3 weeks after treatment vs untreated controls
How it was run: as §2

[18] = test system: AMARE; test: Post-emergence action against AMARE, 1.28 kg/ha; format: in vivo, Amaranthus retroflexus; conditions: dosage 1280 g/ha, visual rating about 3 weeks after treatment vs untreated controls (100% = plants died)
How it was run: as §2

[19] = test system: LOLRI; test: Pre-emergence action against LOLRI, 1280 g/ha; format: in vivo, Lolium rigidum; conditions: visual scoring after about 3 weeks vs untreated controls, 100% = plants have died, 0% = like control plants
How it was run: as §1

[20] = test system: MATIN; test: Post-emergence action against MATIN, 1.28 kg/ha; format: in vivo, Tripleurospermum inodorum (Matricaria inodora); conditions: dosage 1280 g/ha, visual rating about 3 weeks after treatment vs untreated controls (100% = plants died)
How it was run: as §2

[21] = test system: LOLRI; test: Post-emergence action against LOLRI, 1.28 kg/ha; format: in vivo, Lolium rigidum; conditions: dosage 1280 g/ha, visual rating about 3 weeks after treatment vs untreated controls
Experimental: as §3

[22] = test system: STEME; test: Post-emergence action against STEME, 1.28 kg/ha; format: in vivo, Stellaria media; conditions: dosage 1280 g/ha, visual rating about 3 weeks after treatment vs untreated controls (100% = plants died)
How it was run: as §2

| SMILES | Pre-emergence action against MATIN [1] [%] | Post-emergence action against POAAN [2] [%] | Post-emergence action against ALOMY [3] [%] | Post-emergence action against VERPE [4] [%] | Pre-emergence action against SETVI [5] [%] | Pre-emergence action against AMARE [6] [%] | Pre-emergence action against ECHCG [7] [%] | Post-emergence action against KCHSC [8] [%] | Pre-emergence action against STEME [9] [%] | Pre-emergence action against POAAN [10] [%] | Post-emergence action against ECHCG [11] [%] | Pre-emergence action against ALOMY [12] [%] | Pre-emergence action against VERPE [13] [%] | Post-emergence action against ABUTH [14] [%] | Pre-emergence action against DIGSA [15] [%] | Post-emergence action against SETVI [16] [%] | Post-emergence action against DIGSA [17] [%] | Post-emergence action against AMARE [18] [%] | Pre-emergence action against LOLRI [19] [%] | Post-emergence action against MATIN [20] [%] | further results |
| --- | --- | --- | --- | --- | --- | --- | --- | --- | --- | --- | --- | --- | --- | --- | --- | --- | --- | --- | --- | --- | --- |
| CCOC(=O)COc1nn(-c2ccccc2F)c(-c2ccc(F)cn2)c1I [II-012] | 90 | 100 | 100 | 100 | 100 | 90 | 90 | 100 | 100 | 100 | 100 | 90 | 90 | 90 | 100 | 90 | 90 | 100 | 100 | 90 |  |
| CCOC(=O)COc1nn(-c2ccccc2F)c(-c2ccnnc2)c1Br [IV-001, Ethyl {[4-bromo-1-(2-fluorophenyl)-5-(pyridazin-4-yl)-1H-pyrazol-3-yl]oxy}acetate] |  |  | 100 |  |  |  |  | 90 |  |  |  |  |  |  |  | 100 |  |  |  |  | pest or weed control at 1280 g/ha ([1]; Tripleurospermum inodorum, 504 h): 90%; pest or weed control at 1280 g/ha ([2]; Poa annua, 504 h): 100%; pest or weed control at 1280 g/ha ([4]; Veronica persica, 504 h): 90%; pest or weed control at 1280 g/ha ([5]; Setaria viridis, 504 h): 100%; pest or weed control at 1280 g/ha ([6]; Amaranthus retroflexus, 504 h): 90%; pest or weed control at 1280 g/ha ([7]; Echinochloa crus-galli, 504 h): 90%; pest or weed control at 1280 g/ha ([9]; Stellaria media, 504 h): 90%; pest or weed control at 1280 g/ha ([10]; Poa annua, 504 h): 100%; pest or weed control at 1280 g/ha ([11]; Echinochloa crus-galli, 504 h): 90%; pest or weed control at 1280 g/ha ([19]; Lolium rigidum, 504 h): 100% |
| CONC(=O)COc1nn(-c2ccccc2F)c(-c2ccc(F)nc2)c1Br [VII-068] | 100 | 100 | 100 | 100 | 100 | 100 | 100 | 90 | 100 | 100 | 100 | 100 | 100 | 100 | 100 | 90 | 100 | 100 | 100 | 90 | Post-emergence action against LOLRI [21]: 100% |
| O=C(O)COc1nn(-c2ccc(F)cc2)c(-c2ccc(F)nc2)c1I [VII-069] | 90 |  | 100 | 100 | 100 | 100 |  | 90 | 100 | 100 |  |  | 100 | 90 | 100 |  | 100 |  | 90 | 90 | Post-emergence action against STEME [22]: 90% |
| COC(=O)CNC(=O)COc1nn(-c2ccccc2F)c(-c2ccnc(F)c2)c1Br [VIII-009] | 100 | 100 | 100 | 100 | 100 | 100 | 100 | 90 | 100 | 100 | 100 |  | 100 |  | 100 | 90 | 100 | 90 | 90 | 90 |  |
| COC(=O)COc1nn(-c2cc(F)ccc2F)c(-c2ccnc(F)c2)c1Br [VIII-010] | 100 | 100 | 100 | 90 | 100 | 100 | 100 | 90 | 100 | 100 | 100 | 100 | 100 |  | 100 | 100 | 100 | 100 | 100 | 100 | Post-emergence action against STEME [22]: 100%; Post-emergence action against LOLRI [21]: 100% |
